Assay results: patent US12517131B2, “Methods for labeling eukaryotic cells from a multicellular organism as well as for treating and/or diagnosing a cancer using modified monosaccharide compounds” (DIAMIDEX, priority 2019, dated 2026)

Key:
Test in all cases: Comparison of labeling of Ara-N3 and KDO-N3
Format in all cases: cell-based, human
Details in all cases: same conditions as in example 2
Raw = test system: Raw
Macrophages = test system: Macrophages
HeLa = test system: HeLa

Measured: labelling of cells (fluorescence intensity)

[N-]=[N+]=NC[C@@H](O)[C@@H](O)[C@H](O)[C@H](O)CC(=O)C(=O)O [KDO-N3, 8-azido-3,8-dideoxy-D-manno-octulosonic acid]
not labelled: all assays above
